# Laboratory results as given in the OligoGym collection.
# Where “and” joins values, the source holds several entries; their conditions need not be identical. Identical values can stand only once. After the bases stand the sugars from the 5' end (letter, count) and the backbone: PS all phosphorothioate, else s phosphorothioate and o phosphodiester by linkage. Methylation of C is not given here. e = 2'-O-(2-methoxyethyl) (MOE); k = constrained ethyl (cEt); d = 2'-deoxy (DNA); m = 2'-O-methyl
# Biological target: HSD17B13
# Settings: ASO, HepaRG
Sequence,target mRNA inhibition (1 µM),further results
"ACTGGATGGATTTCTC (sugars k3 d10 k3, PS)",83%,target mRNA inhibition (0.02 µM): 9%; target mRNA inhibition (0.078 µM): 20%; target mRNA inhibition (0.313 µM): 45%; target mRNA inhibition (1.25 µM): 60%; target mRNA inhibition (5 µM): 88%
"GAGAGCGATAGATCTC (sugars k3 d10 k3, PS)",1%,–
"TATTGTAGGGATTGAA (sugars k3 d10 k3, PS)",40%,–
"TATTCTCTTGACAATG (sugars k3 d10 k3, PS)",47%,–
"TAGTGCCAAACCAATG (sugars k3 d10 k3, PS)",46% and 61%,–
"CATATCATTATCATGC (sugars k3 d10 k3, PS)",66%,–
"GGCTATAGTAATTGCT (sugars k3 d10 k3, PS)",13%,–
"ACTTGATCTCTTAGCT (sugars kkdddddddddkekek, PS)",62%,–
"GAGTATAAATGGCAAT (sugars k3 d10 k3, PS)",53%,–
"GCTGGAACAATATGGG (sugars k3 d10 k3, PS)",36%,–
"ATGTGATTGAGTTCTC (sugars k3 d10 k3, PS)",36%,–
"AGACAGGTAATTAATC (sugars k3 d10 k3, PS)",29%,–
"GATGATGTTCATGGCT (sugars k3 d10 k3, PS)",86%,target mRNA inhibition (0.02 µM): 3%; target mRNA inhibition (0.078 µM): 17%; target mRNA inhibition (0.313 µM): 70%; target mRNA inhibition (1.25 µM): 85%
"GCAAATGTAAGAAGCC (sugars k3 d10 k3, PS)",4%,–
"ATGAGGTTTTGATACC (sugars k3 d1 m1 d8 k3, PS)",49%,–
"CTAGAATTAAGGGCTA (sugars k3 d10 k3, PS)",42%,–
"TTTCATAGGGAGACCA (sugars k3 d10 k3, PS)",71%,–
"GTCAGACCTCTGTGAA (sugars k3 d10 k3, PS)",34%,–
"TAGTGTAAGCTGAGAG (sugars k3 d9 k3 e1, PS)",82%,target mRNA inhibition (0.02 µM): 6%; target mRNA inhibition (0.078 µM): 13%; target mRNA inhibition (0.313 µM): 52%; target mRNA inhibition (1.25 µM): 69%; target mRNA inhibition (5 µM): 79%
"TCTTAGCTGTGCACTC (sugars k3 d10 k3, PS)",69%,–
"AAGGAGTATGACAACT (sugars k3 d10 k3, PS)",28%,–
"GGATGTTAGGACCCAG (sugars k3 d10 k3, PS)",81%,target mRNA inhibition (0.02 µM): 4%; target mRNA inhibition (0.078 µM): 18%; target mRNA inhibition (0.313 µM): 69%; target mRNA inhibition (1.25 µM): 89%; target mRNA inhibition (5 µM): 93%
"ACTGATACATACCACT (sugars k3 d10 k3, PS)",52%,–

Sequence,target mRNA inhibition (1 µM),further results
"TGCTACTCTAGGAGAT (sugars k3 d10 k3, PS)",60%,–
"AATACAGGCCATAATC (sugars k3 d10 k3, PS)",16%,–
"CTCCAAATTCCCAACC (sugars k3 d10 k3, PS)",31%,–
"GAATAGCAAGCCAACA (sugars k3 d1 m1 d8 k3, PS)",23%,–
"TACCUCTAAGTTAGCC (sugars k3 d1 m1 d8 k3, PS)",13%,–
"CTAATTTAGTCAACTT (sugars k3 d10 k3, PS)",40%,–
"CGCGCTTATTAATATC (sugars k3 d10 k3, PS)",6%,–
"ATTCTATAGCTAAGTA (sugars k3 d10 k3, PS)",23%,–
"TGGTCTAAAGTGCTGG (sugars k3 d10 k3, PS)",61%,–
"CTATCATGCCTTCCCC (sugars k3 d10 k3, PS)",1%,–
"GCTAGTGCCAAACCAA (sugars k3 d9 k3 e1, PS)",70%,–
"ATAGTTCAAATTGGAT (sugars k3 d10 k3, PS)",48%,–
"AGAGGATAGTCCATGC (sugars k3 d9 k3 e1, PS)",78%,target mRNA inhibition (0.02 µM): 0%; target mRNA inhibition (0.078 µM): 3%; target mRNA inhibition (0.313 µM): 40%; target mRNA inhibition (1.25 µM): 50%; target mRNA inhibition (5 µM): 44%
"ACGGTGATCAAATGTA (sugars k3 d9 k3 e1, PS)",41%,–
"ATTACAGCCTTAGAGT (sugars k3 d10 k3, PS)",56%,–
"TTGGTTGGAGGCTGTA (sugars k3 d10 k3, PS)",60%,–
"AGGCATTAGATGGTAA (sugars k3 d10 k3, PS)",51%,–
"AGCATTCCATGATTAA (sugars k3 d10 k3, PS)",47%,–
"AGAATAGGAGAGTCTT (sugars k3 d10 k3, PS)",64%,–
"TTACAGCATCAAGACA (sugars k3 d9 k3 e1, PS)",44%,–
"TGTAAGAGTCAGTATC (sugars k3 d10 k3, PS)",43%,–
"GAAGTTTTTAAGAGGC (sugars k3 d10 k3, PS)",64%,–
